# From patent publication US11725004B2, “(Cyano-dimethyl-methyl)-isoxazoles and -[1,3,4]thiadiazoles” (Centrexion Therapeutics Corporation, priority 2013, dated 2023)
# Molecular target: human CB1R (Homo sapiens (Human), UniProt P21554)
# Experiment: CB1 cAMP (Assay 2): in vitro testing of CB1 potency
# Type: cell-based
# Conditions: CHO cells expressing human CB1R; inhibition of forskolin-stimulated cAMP
# human CB1R, sequence (P21554 whole entry): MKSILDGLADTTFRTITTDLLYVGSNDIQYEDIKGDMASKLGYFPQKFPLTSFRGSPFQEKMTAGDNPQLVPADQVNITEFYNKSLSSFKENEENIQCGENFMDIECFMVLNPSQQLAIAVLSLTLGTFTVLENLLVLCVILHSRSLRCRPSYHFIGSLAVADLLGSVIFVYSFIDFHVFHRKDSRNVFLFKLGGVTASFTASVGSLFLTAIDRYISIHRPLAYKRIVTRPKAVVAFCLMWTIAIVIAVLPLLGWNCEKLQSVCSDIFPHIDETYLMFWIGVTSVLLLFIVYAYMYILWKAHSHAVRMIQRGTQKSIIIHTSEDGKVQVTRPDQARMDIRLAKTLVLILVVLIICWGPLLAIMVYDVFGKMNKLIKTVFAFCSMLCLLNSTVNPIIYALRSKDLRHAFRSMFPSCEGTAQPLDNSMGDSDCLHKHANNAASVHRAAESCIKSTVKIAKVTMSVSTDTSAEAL
row,SMILES,IC50
1,COCC(C)(C)c1cc(NC(=O)C(C)(C)N(C)CC2CCOCC2)on1 [Example 46 in WO2010147792],0.923 µM
2,CC(C)(CO)c1cc(NC(=O)C(C)(C)S(=O)(=O)CC2CCOCC2)on1 [Example 1 in WO2010036630],> 50 µM
3,CN(C1CCN(S(C)(=O)=O)CC1)C(C)(C)C(=O)Nc1cc(C(C)(C)C#N)no1 [Example 5],2.5 µM
4,CN(CC1CCOCC1)C(C)(C)C(=O)Nc1cc(C(C)(C)C#N)no1 [Example 4],39.4 µM
5,CC(C)(O)c1cc(NC(=O)C(C)(C)S(=O)(=O)CCCC(F)(F)F)on1 [Example 134 in WO2010036630],26 µM
6,CC(C)(CO)c1cc(NC(=O)C(C)(C)S(=O)(=O)CCCC(F)(F)F)on1 [Example 7 in WO2010036630],28 µM
7,CC(C)(CO)c1cc(NC(=O)C(C)(C)S(=O)(=O)C2CCOCC2)on1 [Example 2 in WO2010036630],150 µM
8,CN(CC1CCOCC1)C(C)(C)C(=O)Nc1cc(C(C)(C)CO)no1 [Example 7 in WO2010147792],8.08 µM
9,CC(C)(O)c1cc(NC(=O)C(C)(C)S(=O)(=O)C2CCOCC2)on1 [Example 133 WO2010036630],> 200 µM
10,COCC(C)(C)c1cc(NC(=O)C(C)(C)S(=O)(=O)C2CCOCC2)on1 [Example 38 in WO2010036630],50 µM
11,COCC(C)(C)c1cc(NC(=O)C(C)(C)S(=O)(=O)CC2CCOCC2)on1 [Example 17 in WO2010036630],8.6 µM
12,CC(C)(C#N)c1cc(NC(=O)C(C)(C)S(=O)(=O)C2CCOCC2)on1 [Example 3],> 200 µM
13,CN(CC1CCOCC1)C(C)(C)C(=O)Nc1nnc(C(C)(C)CO)s1 [Example 30 in WO2010147792],120 µM
14,"CN(CC1CCOCC1)C(C)(C)C(=O)Nc1nnc(C(C)(C)C#N)s1 [Example 7, N-[5-(Cyano-dimethyl-methyl)-[1,3,4]thiadiazol-2-yl]-2-methyl-2-[methyl-(tetrahydro-pyran-4-ylmethyl)-amino]-propionamide]",> 200 µM
15,CN(C1CCN(S(C)(=O)=O)CC1)C(C)(C)C(=O)Nc1nnc(C(C)(C)C#N)s1 [Example 8],69 µM
16,CN(C1CCN(S(C)(=O)=O)CC1)C(C)(C)C(=O)Nc1cc(C(C)(C)CO)no1 [Example 47 in WO2010147792],3.1 µM
17,"CC(C)(C#N)c1cc(NC(=O)C(C)(C)S(=O)(=O)CCCC(F)(F)F)on1 [Example 1, N-[3-(Cyano-dimethyl-methyl)-isoxazol-5-yl]-2-methyl-2-(4,4,4-trifluoro-butane-1-sulfonyl)-propionamide]",104 µM
18,"CC(C)(C#N)c1cc(NC(=O)C(C)(C)S(=O)(=O)CC2CCOCC2)on1 [Example 2, N-[3-(Cyano-dimethyl-methyl)-isoxazol-5-yl]-2-methyl-2-(tetrahydro-pyran-4-ylmethanesulfonyl)-propionamide]",> 200 µM
